Experimental data taken from patent US5543517A, “Substituted bicyclic phosphoramides and derivatives thereof” (The DuPont Merck Pharmaceutical Company, priority 1994, dated 1996).
In brackets after ≈: the same amount, converted by molar mass. Read-outs that look alike come from different tables or passages of the source.

How the values were obtained:
HIV-1 (RF) = experiment: HIV RNA assay (microplate based compound evaluation in HIV-1 infected MT-2 cells); format: cell-based
Description: DNA Plasmids and In Vitro RNA Transcripts
Plasmid pDAB 72 containing both gag and pol sequences of BH10 (bp 113-1816) cloned into PTZ 19R was prepared according to Erickson-Viitanen et al. AIDS Research and Human Retroviruses 1989, 5, 577. The plasmid was linearized with Bam HI prior to the generation of in vitro RNA transcripts using the Riboprobe Gemini system II kit (Promega) with T7 RNA polymerase. Synthesized RNA was purified by treatment with RNase free DNAse (Promega), phenol-chloroform extraction, and ethanol precipitation. RNA transcripts were dissolved in water, and stored at -70° C. The concentration of RNA was determined from the A260.
Biotinylated capture probes were purified by HPLC after synthesis on an Applied Biosystems (Foster City, Calif.) DNA synthesizer by addition of biotin to the 5' terminal end of the oligonucleotide, using the biotinphosphoramidite reagent of Cocuzza, Tet. Lett. 1989, 30, 6287. The gag biotinylated capture probe (5-biotin-[…] 3') was complementary to nucleotides 889-912 of HXB2 and the pol biotinylated capture probe (5'-biotin --[…] 3') was complementary to nucleotides 2374-2395 of HXB2. Alkaline phosphatase conjugated oligonucleotides used as reporter probes were prepared by Syngene (San Diego, Calif.). The pol reporter probe (5' […] 3') was complementary to nucleotides 2403-2425 of HXB2. The gag reporter probe (5' […] 3') was complementary to nucleotides 950-973 of HXB2. All nucleotide positions are those of the GenBank Genetic Sequence Data Bank as accessed through the Genetics Computer Group Sequence Analysis Software Package (Devereau Nucleic Acids Research 1984, 12, 387). The reporter probes were prepared as 0.5 μM stocks in 2×SSC(0.3M NaCl, 0.03M sodium citrate), 0.05M Tris pH 8.8, 1 mg/mL BSA. The biotinylated capture probes were prepared as 100 μM stocks in water.
Streptavidin Coated Plates
Nunc-immunomodule microtiter plate strips were coated by addition of 200 μL of streptavidin (30 μg/mL, Scripps, La Jolla, Calif.) in freshly prepared 10 mM sodium carbonate (pH 9.6). Plates were incubated overnight at 4° C. Streptavidin solution was aspirated from the wells and a blocking buffer composed of phosphate buffered saline (PBS), 20 mg/mL bovine serum albumin (crystalline, nuclease and protease free, Calbiochem) and 100 mg/mL lactose (Sigma) was added to the plates for 3 hrs at room temperature. Blocking buffer was removed from the wells, which were allowed to dry overnight at room temperature and subsequently stored at 4° C. in zip lock bags with desiccant. For the majority of the compound evaluation experiments, streptavidin coated plates were obtained from Du Pont Biotechnology Systems (Boston, Mass.).
MT-2, CEM, and H9 cells were maintained in RPMI 1640 supplemented with 5% fetal calf serum (FCS), 2 mM L-glutamine and 50 μg/mL gentamycin, all from Gibco. Laboratory strains of HIV-1 (RF, MN and IIIB) were propagated in H9 cells in the same medium. Virus stocks were prepared approximately 1 month after acute infection of H9 cells by clarification of the tissue culture medium and storage of aliquots at -70° C. Infectious titers of HIV-1 (RF) stocks were 1-3×10^7 PFU (plaque forming units)/mL as measured by plaque assay on MT-2 cells (see below). Each aliquot of virus stock used for infection was thawed only once. In some cases, infected H9 cells were shifted to Dulbecco's modified Eagle's medium 3-10 days before collection of virus in order to generate virus stocks in medium with low biotin content. Clinical isolates of HIV that had been passaged once in MT-2 cells were used to infect fresh MT-2 cells in RPMI medium. Three days after infection, cells were pelleted, resuspended and culture continued in Dulbecco's modified Eagle's medium as above. Virus stocks of clinical isolates were prepared 10-15 days after infection when cytopathic effects were apparent in the culture. […]

HIV-1 protease = target: T1, HIV-1 protease (HIV-1 M:B_HXB2R, UniProt P04585); experiment: HIV protease inhibition assay (HPLC method); format: biochemical; details: pH 5.5, 30° C., 1 hr
T1 construct: cut from Gag-Pol polyprotein
Description: The Ki values in TABLE 1 were determined using the assay conditions described below under HIV Protease Inhibition Assay (HPLC Method). The Ki values are indicated as follows: +++=<10 nM; ++=10 nM to 1 μM; +=>[…].
HIV PROTEASE INHIBITION ASSAY (HPLC METHOD)
Protease: Inclusion bodies of E. coli harboring plasmid T1718R with a synthetic gene coding for a single-chain tethered dimer of HIV protease were prepared as described in Cheng et al. Proc. Natl. Acad. Sci. USA 1990, 87, 9660. Active protease was prepared as described therein by extraction with 67% acetic acid, dilution 33-fold with water, dialysis against water and then against a "refolding buffer" comprising 20 mM MES, 1 mM dithiothreitol and 10% glycerol, pH 5.5. Protease was stored as a stock preparation at 10 uM in refolding buffer.
Substrate: Peptide of the sequence aminobenzoyl-Ala-Thr-His-Gln-Val-Tyr-Phe(NO2)-Val-Arg-Lys-Ala containing p-nitrophenylalanine (Phe(NO2)), was prepared by solid phase synthesis as previously described (Cheng et al. Proc. Natl. Acad. Sci. USA 1990, 87, 9660). Stock solutions of 2 mM substrate were prepared in DMSO.
Inhibitory compounds were dissolved in sufficient DMSO to make 3 mM stock solutions. All further dilutions were prepared in "assay buffer" comprising 1M NaCl, 50 mM MES, pH 5.5, 1 mM EDTA, 1 mM DTT and 20% glycerol.
Enzyme reaction: To a 2 mL screw-cap centrifuge tube were added 50 uL protease (final concentration 0.25 nM) and 0.1 mL inhibitor compound (final concentration 0.1-12,500 nM). After 15 min preincubation at room temperature, the reaction was started by the addition of 0.05 mL substrate (final concentration 5 uM). Incubation was carried out at 30° C. for 1 hr. The reaction was stopped by addition of 1 mL of 0.1M ammonium hydroxide solution.
HPLC measurement of product formation: The product (aminobenzoyl-Ala-Thr-His-Gln-Val-Tyr) was separated from substrate on a Pharmacia MonoQ anion exchange column. The injection volume was 0.2 mL. The mobile phases comprised: solution A (20 mM tris HCl, pH 9.0, 0.02% sodium azide, 10% acetonitrile), and solution B (20 mM tris HCl, pH 9.0, 0.02% sodium azide, 0.5M ammonium formate, 10% acetonitrile). The mobile phases were pumped at 1 mL/min, with a gradient from 0 to 30% B in 5 min, 100% B for 4 min to wash the column, and a re-equilibration wash with A for 4 min. The retention time of the product was 3.6 min. Detection with a Shimadzu model RF535 fluorescence monitor was at 330 nm (excitation) and 430 nm (emission). The Ki was calculated from the formula Ki=I/(((Km+S-FA*S)/(FA*Km))-1) where I=inhibitor concentration, S=substrate concentration, FA=fractional activity=cm peak height with inhibitor/cm peak height without inhibitor and Km=Michaelis constant=20 uM.

HIV (3B) or HIV (RF) = experiment: HIV yield reduction cell assay (plaque assay, MT-2 cells); format: cell-based; details: Human immunodeficiency virus 1, MT2, 72 h, 3 days
Description: HIV YIELD REDUCTION CELL ASSAY
The following procedure is additionally described in Smallheer et al. Antiviral Chemistry and Chemotherapy 1993, 4(1), 27.
MT-2, a human T-cell line, was cultured in RPMI medium supplemented with 5% (v/v) heat inactivated fetal calf serum (FCS), 2 mM L-glutamine and 50 μg/mL gentamycin (later two compounds available from Gibco) Human immunodeficiency virus strains, HIV (3B) and HIV (RF) were propagated in H-9 cells in RPMI with 5% FCS. Poly-L-lysine (Sigma) coated cell culture plates were prepared according to the method of Harada et al. Science 1985, 229 563. MTT, (3-(4,5-dimethyl-thiazol-2-yl)-2,5-diphenyltetrazolium bromide), was obtained from Sigma.
Method: Test compounds were dissolved in dimethylsulfoxide to 5 mg/mL and serially diluted into RPMI medium to ten times the desired final concentration. […]
The virus titers of the progeny virus produced in the presence or absence of test compounds were determined by plaque assay. […] Clear plaques on a purple background were counted and the number of plaque forming units of virus was calculated for each sample. The antiviral activity of test compounds was determined by the percent reduction in the virus titer with respect to virus grown in the absence of inhibitor. The IC90 values in TABLE 2 were determined using the assay conditions described above under HIV Yield Reduction Assay. […]

[1] = Human immunodeficiency virus 1, MT2, 72 h, HIV RNA assay, HIV-1 (RF) infected MT-2 cells, 3 days, 37° C., read-out: IC90

For `O=P12O[C@H]([C@@H](O)[C@@H](Cc3ccccc3)N1CC1CC1)[C@@H](Cc1ccccc1)N2CC1CC1` [Example 1F, (3-endo,4-endo,6-exo)-2,7-Bis(cyclopropylmethyl)-3,6-bis(phenylmethyl)-8-oxa-2,7-diaza-1-phosphabicyclo [3.2.1]octan-4-ol 1-oxide], the IC90 (HIV-1 (RF); [1]) was 10 to 100 µg/mL (≈ 22.1 to 221 µM) and the Ki (HIV-1 protease) was 0.01 to 1 µM.
`O=P12O[C@H]([C@@H](O)[C@@H](Cc3ccccc3)N1Cc1ccc3ccccc3c1)[C@@H](Cc1ccccc1)N2Cc1ccc2ccccc2c1` [Example 2C, (3-endo,4-endo,6-exo)-2,7-Bis(2-naphthalenylmethyl)-3,6-bis(phenylmethyl)-8-oxa-2,7-diaza-1-phosphabicyclo[3.2.1]octan-4-ol 1-oxide] gave an IC90 (HIV-1 (RF); [1]) of over 50 µg/mL and a Ki (HIV-1 protease) of 0.01 to 1 µM.
In the case of `CCCCN1[C@H](Cc2ccccc2)[C@H](O)[C@H]2OP1(=O)N(CCCC)[C@@H]2Cc1ccccc1` [Example 3C, (3-endo,4-endo,6-exo)-2,7-Bis(butyl)-3,6-bis(phenylmethyl)-8-oxa-2,7-diaza-1-phosphabicyclo[3.2.1]octan-4-ol 1-oxide], the IC90 (HIV-1 (RF); [1]) is reported as over 50 µg/mL and the Ki (HIV-1 protease) is reported as 0.01 to 1 µM.
Molecule `O=P12O[C@H]([C@@H](O)[C@@H](Cc3ccccc3)N1Cc1ccccc1)[C@@H](Cc1ccccc1)N2Cc1ccccc1` [Example 4E, (3-endo,4-endo,6-exo)-2,3,6,7-tetrakis (phenylmethyl)-8-oxa-2,7-diaza-1-phosphabicyclo[3.2.1]octan-4-ol 1-oxide] has an IC90 (HIV-1 (RF); [1]) of 10 to 100 µg/mL (≈ 19.1 to 191 µM) and a Ki (HIV-1 protease) of 0.01 to 1 µM.
With `O=P12O[C@H]([C@@H](O)[C@@H](Cc3ccccc3)N1Cc1ccc(CO)cc1)[C@@H](Cc1ccccc1)N2Cc1ccc(CO)cc1` [Example 5C, (3-endo,4-endo,6-exo)-2,7-Bis(4-(hydroxymethyl)phenylmethyl)-3,6-bis(phenylmethyl)-8-oxa-2,7-diaza-1-phosphabicyclo[3.2.1]octan-4-ol 1-oxide] the IC90 (HIV-1 (RF); [1]) was under 10 µg/mL, the Ki (HIV-1 protease) was under 0.01 µM and the IC90 (HIV (3B) or HIV (RF)) was under 10 µg/mL.
`CNc1cccc(CN2[C@H](Cc3ccccc3)[C@H](O)[C@H]3OP2(=O)N(Cc2cccc(NC)c2)[C@@H]3Cc2ccccc2)c1` [Example 6D] gave an IC90 (HIV-1 (RF); [1]) of under 10 µg/mL and a Ki (HIV-1 protease) of 0.01 to 1 µM.
`O=P12O[C@H]([C@@H](O)[C@@H](Cc3ccccc3)N1Cc1ccc(O)cc1)[C@@H](Cc1ccccc1)N2Cc1ccc(O)cc1` [Example 7D, (3-endo,4-endo,6-exo)-2,7-bis(4-hydroxyphenylmethyl)-3,6-bis(phenylmethyl)-8-oxa-2,7-diaza-1-phosphabicyclo[3.2.1]octan-4-ol 1-oxide] showed an IC90 (HIV-1 (RF); [1]) of under 10 µg/mL and a Ki (HIV-1 protease) of under 0.01 µM.
Work on `O=P12O[C@H]([C@@H](O)[C@@H](Cc3ccccc3)N1Cc1cccc(CO)c1)[C@@H](Cc1ccccc1)N2Cc1cccc(CO)c1` [Example 8C, (3-endo,4-endo,6-exo)-2,7-Bis(3-(hydroxymethyl)phenylmethyl)-3,6-bis(phenylmethyl)-8-oxa-2,7-diaza-1-phosphabicyclo[3.2.1]octan-4-ol 1-oxide] yielded an IC90 (HIV-1 (RF); [1]) of under 10 µg/mL and a Ki (HIV-1 protease) of under 0.01 µM.
`Nc1ccn([C@H]2CC[C@@H](CO)O2)c(=O)n1` [ddC, dideoxycytidine, reference compound] was tested, and the IC90 (HIV-1 (RF); Human immunodeficiency virus 1, MT2, HIV-1 (RF), MT-2 cells, virus dilution selected to give this value, read-out: IC90 value (concentration of compound required to reduce the HIV RNA level by 90%)) was 0.2 µg/mL (≈ 0.947 µM).
